The values that follow come from PubChem BioAssay AID1259411 (Chemical Carcinogenesis Research Information System (CCRIS), 2018).

Each structure is given as a SMILES string. Calls of active or inactive are those of the source. How the calls were made is not given here.

For the data set, the system named is rodent carcinogenicity bioassays, tumor incidence. As to the kind of experiment: CCRIS carcinogenicity studies. The following applies: Species: RAT, Dose: 0, Dose: 0. The method, boiled down:
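NCI-built, expert-reviewed records of carcinogenicity and related test outcomes (mutagenicity, tumor promotion/inhibition) compiled from published and report sources, historical span 1985-2011, not updated.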

As to `C=Cc1ccccc1`, the carcinogen call (Strain/Sex: F344/FEMALE, Route: GAVAGE, 500 MG/KG FOR 103 WK (STUDY DURATION: 104 WK), 1,000, 2,000 MG/KG FOR 78 WK (STUDY DURATION: 105 WK), 500 MG/KG FOR 103 WK (STUDY DURATION: 104 WK), 1,000, 2,000 MG/KG FOR 78 WK (STUDY DURATION: 105 WK)) was “inactive; negative”; the carcinogen call (Strain/Sex: F344/MALE, Route: GAVAGE, 500 MG/KG FOR 103 WK (STUDY DURATION: 104 WK), 1,000, 2,000 MG/KG FOR 78 WK (STUDY DURATION: 105 WK), 500 MG/KG FOR 103 WK (STUDY DURATION: 104 WK), 1,000, 2,000 MG/KG FOR 78 WK (STUDY DURATION: 105 WK)) is “inactive; negative”; the carcinogen call (Strain/Sex: SPRAGUE-DAWLEY/FEMALE, Route: GAVAGE, 50, 250 MG/KG BW IN OLIVE OIL 1/D 4-5 D/WK FOR 52 WK (STUDY DURATION: LIFETIME), 50, 250 MG/KG BW IN OLIVE OIL 1/D 4-5 D/WK FOR 52 WK (STUDY DURATION: LIFETIME), Tumor Site: Type of Lesion: [BRAIN WAS ONLY SITE EVALUATED]) is “inactive; negative”; the carcinogen call (Strain/Sex: SPRAGUE-DAWLEY/FEMALE, Route: INHALATION, 25, 50, 100, 200, 300 PPM 4 HR/D, 5 D/WK FOR 52 WK (STUDY DURATION: LIFESPAN), 25, 50, 100, 200, 300 PPM 4 HR/D, 5 D/WK FOR 52 WK (STUDY DURATION: LIFESPAN), Tumor Site: Type of Lesion: MAMMARY GLAND: BENIGN TUMOR, MALIGNANT TUMOR) was “active; positive”; the carcinogen call (Strain/Sex: SPRAGUE-DAWLEY/FEMALE, Route: INHALATION, 25, 50, 100, 200, 300 PPM IN AIR 4 HR/D 5 D/WK FOR 52 WK (STUDY DURATION: LIFETIME), 25, 50, 100, 200, 300 PPM IN AIR 4 HR/D 5 D/WK FOR 52 WK (STUDY DURATION: LIFETIME), Tumor Site: Type of Lesion: [BRAIN WAS ONLY SITE EVALUATED]) was “inactive; negative”; the carcinogen call (Strain/Sex: SPRAGUE-DAWLEY/FEMALE, Route: INTRAGASTRIC, 50, 250 MG/KG IN OLIVE OIL 1/D, 4-5 D/WK FOR 52 WK (STUDY DURATION: LIFESPAN), 50, 250 MG/KG IN OLIVE OIL 1/D, 4-5 D/WK FOR 52 WK (STUDY DURATION: LIFESPAN)) is “inactive; negative”. The carcinogen call is “inactive; negative” (Strain/Sex: SPRAGUE-DAWLEY/FEMALE, Route: INTRAPERITONEAL, 50 MG/RAT IN OLIVE OIL, 1/2 MO FOR 8 MO (STUDY DURATION: LIFESPAN)); “inactive; negative” (Strain/Sex: SPRAGUE-DAWLEY/FEMALE, Route: SUBCUTANEOUS, 50 MG/RAT IN OLIVE OIL ONCE (STUDY DURATION: LIFESPAN)); “inactive; negative” (Strain/Sex: SPRAGUE-DAWLEY/MALE, Route: GAVAGE, 50, 250 MG/KG BW IN OLIVE OIL 1/D 4-5 D/WK FOR 52 WK (STUDY DURATION: LIFETIME), 50, 250 MG/KG BW IN OLIVE OIL 1/D 4-5 D/WK FOR 52 WK (STUDY DURATION: LIFETIME), Tumor Site: Type of Lesion: [BRAIN WAS ONLY SITE EVALUATED]); “inactive; negative” (Strain/Sex: SPRAGUE-DAWLEY/MALE, Route: INHALATION, 25, 50, 100, 200, 300 PPM 4 HR/D, 5 D/WK FOR 52 WK (STUDY DURATION: LIFESPAN), 25, 50, 100, 200, 300 PPM 4 HR/D, 5 D/WK FOR 52 WK (STUDY DURATION: LIFESPAN)); “inactive; negative” (Strain/Sex: SPRAGUE-DAWLEY/MALE, Route: INHALATION, 25, 50, 100, 200, 300 PPM IN AIR 4 HR/D 5 D/WK FOR 52 WK (STUDY DURATION: LIFETIME), 25, 50, 100, 200, 300 PPM IN AIR 4 HR/D 5 D/WK FOR 52 WK (STUDY DURATION: LIFETIME), Tumor Site: Type of Lesion: [BRAIN WAS ONLY SITE EVALUATED]); “inactive; negative” (Strain/Sex: SPRAGUE-DAWLEY/MALE, Route: INTRAGASTRIC, 50, 250 MG/KG IN OLIVE OIL 1/D, 4-5 D/WK FOR 52 WK (STUDY DURATION: LIFESPAN), 50, 250 MG/KG IN OLIVE OIL 1/D, 4-5 D/WK FOR 52 WK (STUDY DURATION: LIFESPAN)). The carcinogen call by setting is: (Strain/Sex: SPRAGUE-DAWLEY/MALE, Route: INTRAPERITONEAL, 50 MG/RAT IN OLIVE OIL, 1/2 MO FOR 8 MO (STUDY DURATION: LIFESPAN)) “inactive; negative”; (Strain/Sex: SPRAGUE-DAWLEY/MALE, Route: SUBCUTANEOUS, 50 MG/RAT IN OLIVE OIL ONCE (STUDY DURATION: LIFESPAN)) “inactive; negative”; (Strain/Sex: STRAIN-CD/FEMALE, Route: INHALATION, 50, 200, 500, 1000 PPM 6HR/D 5 D/WK FOR 104 WK (STUDY DURATION:107 WK), 50, 200, 500, 1000 PPM 6HR/D 5 D/WK FOR 104 WK (STUDY DURATION:107 WK)) “inactive; negative”; (Strain/Sex: STRAIN-CD/MALE, Route: INHALATION, 50, 200, 500, 1000 PPM 6 HR/D 5 D/WK FOR 104 WK (STUDY DURATION:107 WK), 50, 200, 500, 1000 PPM 6 HR/D 5 D/WK FOR 104 WK (STUDY DURATION:107 WK)) “inactive; negative”.
